Test results: ChEMBL document CHEMBL3217594, “Structureactivity relationships of methyl-lysine reader antagonists” (Medchemcomm, 2012)
Active and inactive are the calls of the source. The calls are words filed in the database; no cut-off is given here.

Key:
[1] = target: T1, Chromobox protein homolog 7 (Homo sapiens, UniProt O95931); assay: Antagonist activity at Flag-tagged CBX7 (unknown origin) assessed as inhibition of CBX7/biotinylated H3K9Me3 peptide interaction after 30 mins by AlphaScreen assay
T1 sequence (O95931 whole entry): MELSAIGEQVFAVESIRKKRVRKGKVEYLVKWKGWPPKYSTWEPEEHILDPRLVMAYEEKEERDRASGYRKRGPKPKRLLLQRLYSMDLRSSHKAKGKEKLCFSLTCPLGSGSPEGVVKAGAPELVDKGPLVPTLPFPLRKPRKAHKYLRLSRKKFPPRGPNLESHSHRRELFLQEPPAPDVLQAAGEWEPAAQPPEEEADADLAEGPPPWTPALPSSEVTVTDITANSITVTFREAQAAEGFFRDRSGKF

[2] = target: T2, Chromobox protein homolog 7 (Homo sapiens) (UniProt O95931); assay: Antagonist activity at Flag-tagged CBX7 (unknown origin) assessed as inhibition of CBX7/biotinylated H3K9Me3 peptide interaction at 30 uM after 30 mins by AlphaScreen assay
T2 sequence (whole entry): T1 sequence (O95931 whole entry)

[3] = target: T3, Lethal(3)malignant brain tumor-like protein 3 (Homo sapiens, UniProt Q96JM7); assay: Antagonist activity at His-tagged L3MBTL3 (unknown origin) assessed as inhibition of L3MBTL3/biotinylated H4K20Me2 peptide interaction after 30 mins by AlphaScreen assay
T3 sequence (Q96JM7 whole entry): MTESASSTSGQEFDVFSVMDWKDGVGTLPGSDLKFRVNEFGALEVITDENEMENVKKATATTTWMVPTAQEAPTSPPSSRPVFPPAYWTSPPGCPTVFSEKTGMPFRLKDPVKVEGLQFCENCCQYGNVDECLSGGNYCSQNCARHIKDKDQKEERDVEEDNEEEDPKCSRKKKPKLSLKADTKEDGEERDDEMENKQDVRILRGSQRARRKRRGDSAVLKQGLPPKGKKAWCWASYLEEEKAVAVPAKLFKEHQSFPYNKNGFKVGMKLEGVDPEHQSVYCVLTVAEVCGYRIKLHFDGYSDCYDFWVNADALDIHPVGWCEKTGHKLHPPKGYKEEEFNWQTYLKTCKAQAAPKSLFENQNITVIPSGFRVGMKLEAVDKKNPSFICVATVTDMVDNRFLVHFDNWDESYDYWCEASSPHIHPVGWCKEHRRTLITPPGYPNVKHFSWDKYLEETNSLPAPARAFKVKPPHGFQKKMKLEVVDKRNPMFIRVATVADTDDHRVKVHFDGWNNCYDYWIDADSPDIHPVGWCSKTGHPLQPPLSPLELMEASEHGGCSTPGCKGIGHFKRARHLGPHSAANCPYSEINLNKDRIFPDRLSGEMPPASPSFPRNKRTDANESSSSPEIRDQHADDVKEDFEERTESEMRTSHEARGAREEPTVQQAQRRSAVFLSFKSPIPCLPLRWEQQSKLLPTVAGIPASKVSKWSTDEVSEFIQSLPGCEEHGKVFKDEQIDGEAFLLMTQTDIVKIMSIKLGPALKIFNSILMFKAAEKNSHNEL

[4] = target: T4, Lethal(3)malignant brain tumor-like protein 4 (Homo sapiens, UniProt Q8NA19); assay: Antagonist activity at L3MBTL4 (unknown origin) assessed as inhibition of L3MBTL4/biotinylated H2AK36Me1 peptide interaction after 30 mins by AlphaScreen assay
T4 sequence (Q8NA19 whole entry): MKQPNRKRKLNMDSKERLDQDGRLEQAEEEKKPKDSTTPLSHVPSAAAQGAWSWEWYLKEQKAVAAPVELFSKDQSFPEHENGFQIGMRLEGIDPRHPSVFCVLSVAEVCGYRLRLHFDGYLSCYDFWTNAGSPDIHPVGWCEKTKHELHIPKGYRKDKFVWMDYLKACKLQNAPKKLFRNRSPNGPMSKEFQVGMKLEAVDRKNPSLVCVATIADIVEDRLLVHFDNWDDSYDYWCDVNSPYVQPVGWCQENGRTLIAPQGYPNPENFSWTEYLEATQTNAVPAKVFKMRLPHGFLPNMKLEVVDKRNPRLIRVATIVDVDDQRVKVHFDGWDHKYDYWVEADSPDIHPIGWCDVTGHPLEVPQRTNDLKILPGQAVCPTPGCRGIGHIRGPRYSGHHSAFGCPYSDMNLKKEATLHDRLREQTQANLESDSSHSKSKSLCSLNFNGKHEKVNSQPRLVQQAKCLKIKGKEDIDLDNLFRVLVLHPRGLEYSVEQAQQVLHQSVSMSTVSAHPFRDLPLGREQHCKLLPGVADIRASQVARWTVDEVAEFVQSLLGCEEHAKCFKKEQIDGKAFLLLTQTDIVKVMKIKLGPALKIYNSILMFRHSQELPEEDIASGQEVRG

[5] = target: T5, Lethal(3)malignant brain tumor-like protein 4 (Homo sapiens) (UniProt Q8NA19); assay: Antagonist activity at L3MBTL4 (unknown origin) assessed as inhibition of L3MBTL4/biotinylated H2AK36Me1 peptide interaction at 30 uM after 30 mins by AlphaScreen assay
T5 sequence (whole entry): T4 sequence (Q8NA19 whole entry)

[6] = target: T6, MBT domain-containing protein 1 (Homo sapiens, UniProt Q05BQ5); assay: Antagonist activity at MBTD1 (unknown origin) assessed as inhibition of MBTD1/biotinylated H4K20Me1 peptide interaction after 30 mins by AlphaScreen assay
T6 sequence (Q05BQ5 whole entry, the tested form may be a part): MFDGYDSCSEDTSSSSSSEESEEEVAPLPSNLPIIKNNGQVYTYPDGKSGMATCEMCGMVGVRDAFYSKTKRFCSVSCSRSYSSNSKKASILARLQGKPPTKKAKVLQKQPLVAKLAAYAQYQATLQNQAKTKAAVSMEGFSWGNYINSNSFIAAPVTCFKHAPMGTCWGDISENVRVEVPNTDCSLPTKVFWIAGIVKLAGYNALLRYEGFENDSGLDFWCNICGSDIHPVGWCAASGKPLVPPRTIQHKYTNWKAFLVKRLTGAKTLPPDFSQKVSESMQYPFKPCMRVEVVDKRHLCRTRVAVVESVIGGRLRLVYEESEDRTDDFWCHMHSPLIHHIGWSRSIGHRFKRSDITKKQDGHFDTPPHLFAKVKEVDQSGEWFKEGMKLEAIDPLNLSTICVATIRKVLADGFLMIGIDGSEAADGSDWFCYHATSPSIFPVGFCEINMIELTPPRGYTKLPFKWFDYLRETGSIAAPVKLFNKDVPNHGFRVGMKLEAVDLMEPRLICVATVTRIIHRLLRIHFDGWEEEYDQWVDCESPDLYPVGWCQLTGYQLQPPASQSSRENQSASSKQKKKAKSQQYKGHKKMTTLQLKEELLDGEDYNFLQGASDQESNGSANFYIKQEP

[7] = target: T6, MBT domain-containing protein 1; assay: Antagonist activity at MBTD1 (unknown origin) assessed as inhibition of MBTD1/biotinylated H4K20Me1 peptide interaction at 30 uM after 30 mins by AlphaScreen assay
[8] = target: T7, Scm-like with four MBT domains protein 1 (Homo sapiens, UniProt Q9UHJ3); assay: Antagonist activity at SFMBT1 (unknown origin) assessed as inhibition of SFMBT1/biotinylated H3K9Me1 peptide interaction after 30 mins by AlphaScreen assay
T7 sequence (Q9UHJ3 whole entry): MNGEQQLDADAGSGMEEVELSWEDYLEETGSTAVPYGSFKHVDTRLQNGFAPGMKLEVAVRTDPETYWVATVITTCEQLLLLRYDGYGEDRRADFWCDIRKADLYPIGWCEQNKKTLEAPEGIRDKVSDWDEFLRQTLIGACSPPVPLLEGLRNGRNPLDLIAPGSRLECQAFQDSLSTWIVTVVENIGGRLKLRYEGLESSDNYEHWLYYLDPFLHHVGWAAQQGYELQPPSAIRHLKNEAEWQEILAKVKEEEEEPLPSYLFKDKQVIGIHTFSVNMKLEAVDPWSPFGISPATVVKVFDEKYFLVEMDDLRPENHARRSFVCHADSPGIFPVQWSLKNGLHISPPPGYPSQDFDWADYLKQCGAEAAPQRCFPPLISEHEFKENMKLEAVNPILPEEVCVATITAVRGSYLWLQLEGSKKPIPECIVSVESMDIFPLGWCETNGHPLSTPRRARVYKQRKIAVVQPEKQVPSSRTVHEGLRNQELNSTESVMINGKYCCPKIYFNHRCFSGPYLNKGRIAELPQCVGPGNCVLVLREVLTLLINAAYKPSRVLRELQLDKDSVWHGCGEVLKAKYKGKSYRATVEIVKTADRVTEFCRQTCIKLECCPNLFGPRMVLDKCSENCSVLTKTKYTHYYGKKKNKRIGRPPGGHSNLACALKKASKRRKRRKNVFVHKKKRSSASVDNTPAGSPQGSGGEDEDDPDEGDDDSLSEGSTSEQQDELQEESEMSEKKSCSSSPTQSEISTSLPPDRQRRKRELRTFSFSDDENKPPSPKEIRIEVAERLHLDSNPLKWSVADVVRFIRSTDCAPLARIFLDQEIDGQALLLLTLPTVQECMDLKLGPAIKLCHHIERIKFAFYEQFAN

[9] = target: T8, Scm-like with four MBT domains protein 1 (Homo sapiens) (UniProt Q9UHJ3); assay: Antagonist activity at SFMBT1 (unknown origin) assessed as inhibition of SFMBT1/biotinylated H3K9Me1 peptide interaction at 30 uM after 30 mins by AlphaScreen assay
T8 sequence (whole entry): T7 sequence (Q9UHJ3 whole entry)

Compound | IC50 [1] [µM] | inhibition [2] | IC50 [3] [µM] | IC50 [4] [µM] | inhibition [5] [%] | IC50 [6] [µM] | inhibition [7] [%] | IC50 [8] [µM] | inhibition [9]
O=C(c1ccc(Br)cc1)N1CCC(N2CCCC2)CC1 | > 30 | inactive | 4.1 | > 30 | 30 | > 30 | 24 | > 30 | inactive
O=C(c1cccc(Br)c1)N1CC2CCC(C1)C2N1CCCC1 (stereo not given) | > 30 | inactive | 3.6 | > 30 | 16 | > 30 | 31 | > 30 | inactive
CNC(=O)c1cccc(C(=O)N2CCC(N3CCCC3)CC2)c1 | > 30 | inactive | 6.4 | > 30 | 32 | > 30 | 21 | > 30 | inactive
O=C(c1ccccc1Br)N1CCC(N2CCCC2)CC1 | > 30 | 17% | 6.8 | > 30 | 29 | > 30 | 31 | > 30 | inactive
O=C(c1cccc(Br)c1)N1CCCC(N2CCCC2)CC1 (stereo not given) | > 30 | 13% | 6.7 | > 30 | 28 | 15.2 | – | > 30 | inactive
O=C(c1cccc(Br)c1)N1CCC(N2CC=CC2)CC1 | > 30 | 18% | 8.7 | > 30 | 28 | > 30 | 24 | > 30 | inactive
O=C(c1ccccc1)N1CCC(N2CCCC2)CC1 | > 30 | inactive | 6.2 | > 30 | 40 | > 30 | 22 | > 30 | inactive
c1ccc(C(c2ccccc2)N2CCC(N3CCCC3)CC2)cc1 | > 30 | inactive | 2.4 | > 30 | 17 | > 30 | 36 | > 30 | inactive
O=C(c1cncc(Br)c1)N1CCC(N2CCCC2)CC1 | > 30 | 9% | 4.8 | > 30 | 41 | > 30 | 23 | > 30 | inactive
